Experimental data: ChEMBL document CHEMBL1201862, “PubChem BioAssay data set” (2004)
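Cells were grown in 96-well plates and exposed to each compound for 48 hours at five concentrations; endpoints were interpolated linearly between bracketing concentrations, or set to the highest concentration if not reached. GI50 marks 50% less growth.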 The source made the active and inactive calls. Cut-off read from the data, not from the text of the source: active = GI50 up to about 1.1 µM and inactive = higher.

Tests used:
Assay in all cases: NCI anticancer screen, dose series, 48 h
[1] = tested on: SW-620
[2] = tested on: A498
[3] = tested on: OVCAR-5
[4] = tested on: HOP-62
[5] = tested on: SK-MEL-5
[6] = tested on: ACHN
[7] = tested on: NCI-H460
[8] = tested on: NCI-H23
[9] = tested on: MOLT-4
[10] = tested on: HT-29
[11] = tested on: LOX IMVI
[12] = tested on: MDA-MB-435
[13] = tested on: NCI-H226
[14] = tested on: SF-539
[15] = tested on: SN12C
[16] = tested on: OVCAR-3
[17] = tested on: HCT-116
[18] = tested on: UO-31
[19] = tested on: SK-MEL-2
[20] = tested on: TK-10
[21] = tested on: COLO 205
[22] = tested on: M14
[23] = tested on: MDA-N
[24] = tested on: 786-0
[25] = tested on: SNB-19
[26] = tested on: PC-3
[27] = tested on: DU-145
[28] = tested on: CCRF-CEM
[29] = tested on: A549
[30] = tested on: T47D
[31] = tested on: RXF 393
[32] = tested on: HL-60
[33] = tested on: UACC-62
[34] = tested on: SF-295
[35] = tested on: SR
[36] = tested on: SNB-75
[37] = tested on: OVCAR-4
[38] = tested on: RPMI-8226
[39] = tested on: HCC 2998
[40] = tested on: EKVX
[41] = tested on: IGROV-1
[42] = tested on: Hs-578T
[43] = tested on: SK-MEL-28
[44] = tested on: HOP-92
[45] = tested on: HCT-15
[46] = tested on: CAKI-1
[47] = tested on: K562
[48] = tested on: OVCAR-8
[49] = tested on: NCI/ADR-RES
[50] = tested on: KM12
[51] = tested on: SF-268
[52] = tested on: MCF7
[53] = tested on: NCI-H522
[54] = tested on: UACC-257
[55] = tested on: U-251
[56] = tested on: Malme-3M
[57] = tested on: SK-OV-3
[58] = tested on: MDA-MB-231
[59] = tested on: BT-549

## O=C1CCc2cc3c(cc21)CC1(Cc2ccccc2C1)C3
[1]
  GI50: 4.34 µM (inactive)
[2]
  GI50: 12.2 µM (inactive)
[3]
  GI50: 16.3 µM (inactive)
[4]
  GI50: 9.73 µM (inactive)
[5]
  GI50: 5.77 µM (inactive)
[6]
  GI50: 19.8 µM (inactive)
[7]
  GI50: 6.31 µM (inactive)
[8]
  GI50: 26.9 µM (inactive)
[9]
  GI50: 0.678 µM (active)
[10]
  GI50: 3.14 µM (inactive)
[11]
  GI50: 8.02 µM (inactive)
[12]
  GI50: 2.58 µM (inactive)
[13]
  GI50: 12.9 µM (inactive)
[14]
  GI50: 9.12 µM (inactive)
[15]
  GI50: 19.9 µM (inactive)
[16]
  GI50: 8.75 µM (inactive)
[17]
  GI50: 4.08 µM (inactive)
[18]
  GI50: 4.02 µM (inactive)
[19]
  GI50: 2.11 µM (inactive)
[20]
  GI50: 30.3 µM (inactive)
[21]
  GI50: 3.79 µM (inactive)
[22]
  GI50: 14.9 µM (inactive)
[23]
  GI50: 2.16 µM (inactive)
[24]
  GI50: 36.3 µM (inactive)
[25]
  GI50: 27.2 µM (inactive)
[26]
  GI50: 14.2 µM (inactive)
[27]
  GI50: 20.8 µM (inactive)
[28]
  GI50: 2.98 µM (inactive)
[29]
  GI50: 12 µM (inactive)
[30]
  GI50: 20.2 µM (inactive)
[31]
  GI50: 33 µM (inactive)
[32]
  GI50: 2.43 µM (inactive)
[33]
  GI50: 21.1 µM (inactive)
[34]
  GI50: 6.43 µM (inactive)
[35]
  GI50: 1.86 µM (inactive)
[36]
  GI50: 15.7 µM (inactive)
[37]
  GI50: 50.1 µM (inactive)
[38]
  GI50: 6.27 µM (inactive)
[39]
  GI50: 8.75 µM (inactive)
[40]
  GI50: > 27.3 µM (inactive)
[41]
  GI50: 4.3 µM (inactive)
[42]
  GI50: 52.1 µM (inactive)
[43]
  GI50: 10.3 µM (inactive)
[44]
  GI50: 6.32 µM (inactive)
[45]
  GI50: 13.8 µM
[46]
  GI50: 0.703 µM (active)
[47]
  GI50: 2.09 µM (inactive)
[48]
  GI50: 24.9 µM (inactive)
[49]
  GI50: 7.31 µM (inactive)
[50]
  GI50: > 22.4 µM (inactive)
[51]
  GI50: 37.8 µM (inactive)
[52]
  GI50: 9.29 µM (inactive)
[53]
  GI50: 9.14 µM (inactive)
[54]
  GI50: 19.6 µM (inactive)
[55]
  GI50: 7.96 µM (inactive)
[56]
  GI50: 16.8 µM (inactive)
[57]
  GI50: 14 µM (inactive)
[58]
  GI50: 12 µM (inactive)

## N#Cc1c(-c2ccco2)c2c(n(C3OC(CO)C(O)C(O)C3O)c1=S)CCCC2 (stereo unspecified)
[2]
  GI50: > 100 µM (inactive)
[3]
  GI50: > 100 µM (inactive)
[4]
  GI50: > 100 µM (inactive)
[5]
  GI50: 85.9 µM (inactive)
[6]
  GI50: > 100 µM (inactive)
[7]
  GI50: > 100 µM (inactive)
[8]
  GI50: > 100 µM (inactive)
[9]
  GI50: > 100 µM (inactive)
[10]
  GI50: > 100 µM (inactive)
[11]
  GI50: > 100 µM (inactive)
[12]
  GI50: > 100 µM (inactive)
[13]
  GI50: > 100 µM (inactive)
[14]
  GI50: > 100 µM (inactive)
[15]
  GI50: > 100 µM (inactive)
[16]
  GI50: > 100 µM (inactive)
[17]
  GI50: > 100 µM (inactive)
[19]
  GI50: > 100 µM (inactive)
[20]
  GI50: > 100 µM (inactive)
[21]
  GI50: > 100 µM (inactive)
[22]
  GI50: > 100 µM (inactive)
[23]
  GI50: > 100 µM (inactive)
[24]
  GI50: > 100 µM (inactive)
[26]
  GI50: > 100 µM (inactive)
[27]
  GI50: > 100 µM (inactive)
[28]
  GI50: > 100 µM (inactive)
[29]
  GI50: > 100 µM (inactive)
[30]
  GI50: 85.5 µM (inactive)
[31]
  GI50: > 100 µM (inactive)
[32]
  GI50: > 100 µM (inactive)
[33]
  GI50: > 100 µM (inactive)
[34]
  GI50: > 100 µM (inactive)
[35]
  GI50: > 100 µM (inactive)
[36]
  GI50: 0.0239 µM (active)
[37]
  GI50: > 100 µM (inactive)
[39]
  GI50: > 100 µM (inactive)
[40]
  GI50: > 100 µM (inactive)
[41]
  GI50: > 100 µM (inactive)
[42]
  GI50: > 100 µM (inactive)
[43]
  GI50: > 100 µM (inactive)
[44]
  GI50: > 100 µM (inactive)
[45]
  GI50: > 100 µM
[46]
  GI50: > 100 µM (inactive)
[48]
  GI50: > 100 µM (inactive)
[49]
  GI50: > 100 µM (inactive)
[50]
  GI50: > 100 µM (inactive)
[51]
  GI50: > 100 µM (inactive)
[52]
  GI50: > 100 µM (inactive)
[53]
  GI50: > 100 µM (inactive)
[54]
  GI50: > 100 µM (inactive)
[56]
  GI50: > 100 µM (inactive)
[57]
  GI50: > 100 µM (inactive)
[58]
  GI50: > 100 µM (inactive)

## COc1ccc(/C=N/n2c(Cc3ccc(Cl)cc3)n[nH]c2=O)cc1
[1]
  GI50: > 100 µM (inactive)
[2]
  GI50: 39.3 µM (inactive)
[3]
  GI50: 29.5 µM (inactive)
[4]
  GI50: 15.2 µM (inactive)
[6]
  GI50: 45.1 µM (inactive)
[7]
  GI50: > 100 µM (inactive)
[8]
  GI50: 22 µM (inactive)
[9]
  GI50: > 100 µM (inactive)
[10]
  GI50: 13.6 µM (inactive)
[12]
  GI50: > 100 µM (inactive)
[13]
  GI50: 36.2 µM (inactive)
[14]
  GI50: 22.1 µM (inactive)
[15]
  GI50: 59.7 µM (inactive)
[16]
  GI50: > 100 µM (inactive)
[17]
  GI50: 24.9 µM (inactive)
[18]
  GI50: > 100 µM (inactive)
[19]
  GI50: 21.6 µM (inactive)
[21]
  GI50: 32 µM (inactive)
[22]
  GI50: 45.7 µM (inactive)
[23]
  GI50: > 100 µM (inactive)
[24]
  GI50: 17.7 µM (inactive)
[25]
  GI50: 15.7 µM (inactive)
[26]
  GI50: 92.5 µM (inactive)
[27]
  GI50: 30.3 µM (inactive)
[28]
  GI50: > 100 µM (inactive)
[29]
  GI50: 43.6 µM (inactive)
[30]
  GI50: 54.1 µM (inactive)
[31]
  GI50: 16.8 µM (inactive)
[33]
  GI50: 52.2 µM (inactive)
[34]
  GI50: 19.8 µM (inactive)
[35]
  GI50: 37.3 µM (inactive)
[36]
  GI50: 16.6 µM (inactive)
[37]
  GI50: > 100 µM (inactive)
[38]
  GI50: > 100 µM (inactive)
[39]
  GI50: > 100 µM (inactive)
[40]
  GI50: 30.1 µM (inactive)
[41]
  GI50: 16 µM (inactive)
[43]
  GI50: > 100 µM (inactive)
[44]
  GI50: 17.3 µM (inactive)
[45]
  GI50: 38 µM
[46]
  GI50: 30.8 µM (inactive)
[47]
  GI50: > 100 µM (inactive)
[48]
  GI50: 16.7 µM (inactive)
[49]
  GI50: 32.8 µM (inactive)
[50]
  GI50: > 100 µM (inactive)
[52]
  GI50: 77.8 µM (inactive)
[54]
  GI50: > 100 µM (inactive)
[55]
  GI50: 14.3 µM (inactive)
[57]
  GI50: 36 µM (inactive)
[59]
  GI50: 32.4 µM (inactive)
[58]
  GI50: 8.93 µM (inactive)
